Results reported in US9284567B2, “Method for gene introduction into hordeum plant using agrobacterium, and method for production of transformed plant of hordeum plant” (JAPAN TOBACCO INC., priority 2010, dated 2016).

Assays:
[1] = system: scutellum of barley immature embryo; test: Gene introduction efficiency (GUS expression index) after coculture with Agrobacterium; assay type: cell-based, barley (variety: Golden Promise)
Protocol: Immature embryos (size: 1.5 to 2.0 mm) of barley (variety: Golden Promise) from which embryonic axes were removed were aseptically collected and were immersed in 1 mL of sterilized water in a 2-mL microtube. In order to enhance the gene introduction efficiency, the tube containing the immature embryos was heated in a water bath at 43° C. for 5 minutes. An Agrobacterium strain EHA101 having a hygromycin resistance gene (pIG121Hm) (Non-Patent Literature 2) was suspended in an MG/L liquid medium (Non-Patent Literature 28) containing 100 μM acetosyringone and was shake-cultured (180 rpm) at 28° C. overnight (about 20 hours) to prepare an inoculation source. The bacterial concentration was adjusted to an O.D. of 1.0 (660 nm). The inoculation source was added to the thermal-treated immature embryos, and a reduced pressure treatment was performed with a vacuum pump at 500 mbar for 10 minutes. The immature embryos were washed once with a callus induction liquid medium, CIMT (Tingay et al., 1997: Non-Patent Literature 5) not containing any plant growth regulator (hereinafter, antiauxins, cytokinins, and auxins are collectively referred to as plant growth regulators). The immature embryos inoculated with Agrobacterium were transplanted onto a barley coculture medium (1/10 diluted MS inorganic salts and MS vitamins, 10 g/L of glucose, 0.5 g/L of MES, 5 μM AgNO3, and 5 μM CuSO4, pH 5.8; and 8 g/L of agarose) containing 100 μM acetosyringone in such a manner that the scutellum side faces upward. The test was performed using two plant growth regulators in four test groups of the coculture medium. That is, the four test groups are a hormone-free test group not containing any plant growth regulator, a test group of 5 μM TIBA (antiauxin), a test group of 1.13 μM dicamba (auxin), and a test group of 11.3 μM dicamba (auxin).
Immature embryos cultured at 25° C. in the dark for 24 hours were transplanted in a CIMT resting medium (Tingay et al., 1997: Non-Patent Literature 5) containing 0.5 mg/L of 2,4-D and 1.25 mg/L of CuSO4.5H2O. The resting medium was added with 250 mg/L of carbenicillin and 100 mg/T, of cefotaxime for Agrobacterium eradication. […] The expression of the GUS gene in the scutellum region of each immature embryo was evaluated in seven grades: 87.5 (expressed in 75% or more of scutellum), 62.5 (expressed in 50% or more and less than 75% of scutellum), 37.5 (expressed in 25% or more and less than 50% of scutellum), 17.5 (expressed in 10% or more and less than 25% of scutellum), […] (expressed in 1% or more and less than 10% of scutellum), 0.5 (expressed in exceeding 0% and less than 1% of scutellum), and 0 (no expression), and the average value thereof was expressed by a numerical value as the GUS expression index. […]

barley immature embryos [2] = test: Transformation efficiency per immature embryo (hygromycin-resistant and GUS-positive regenerated plants); assay type: cell-based, barley (variety: Golden Promise)
Protocol: The preparation of materials and the inoculation with Agrobacterium were performed as in Example 1. The thermal treatment was also similarly performed.
Test group (1): Immature embryos inoculated with Agrobacterium were placed on the coculture medium described in Harwood et al. (2008: Non-Patent Literature 11) in such a manner that the scutellum faces downward. The coculture was performed at 25° C. in the dark for 3 days. In this test group, the centrifugation treatment was not performed.
Test group (2): Isolated immature embryos were transferred in a 2-mL microtube containing 1 mL of sterilized water and were centrifuged at 25° C. at 15000 rpm (20000×g) for 10 minutes. Subsequently, coculture was performed as in test group (1).
Test group (3): Immature embryos cocultured as in test group (1) were transferred in a 2-mL microtube containing 1 mL of sterilized water and were centrifuged at 25° C. at 15000 rpm (20000×g) for 10 minutes.
Test group (4): Immature embryos inoculated with Agrobacterium were transferred onto a barley coculture medium (1/10 diluted MS inorganic salts and MS vitamins, 10 g/L of glucose, 5 μM TIBA, 0.5 g/L of MES, 5 μM AgNO3, and 5 μM CuSO4, pH 5.8; and 8 g/L of agarose) containing 100 μM acetosyringone in such a manner that the scutellum side faces upward. The immature embryos were cultured at 25° C. in the dark for 24 hours. In this test group, the centrifugation treatment was not performed.
Test group (5): Isolated immature embryos were transferred in a 2-mL microtube containing 1 mL of sterilized water and were centrifuged at 25° C. at 15000 rpm (20000×g) for 10 minutes. Subsequently, coculture was performed as in test group (4).
Test group (6): Immature embryos cocultured as in test group (4) were transferred in a 2-mL microtube containing 1 mL of sterilized water and were centrifuged at 25° C. at 15000 rpm (20000×g) for 10 minutes.
That is, test groups (1), (2), and (3) used a coculture medium containing an auxin, dicamba, and undiluted MS inorganic salts, whereas test groups (4), (5), and (6) used a coculture medium containing an antiauxin, TIBA, and 1/10 diluted MS inorganic salts. Test group (7) used a hormone-free coculture medium containing 1/10 diluted MS inorganic salts.
The immature embryos prepared in test groups (1) to (7) were each transplanted in a CIMT resting medium (Tingay et al., 1997: Non-Patent Literature 5) containing 0.5 mg/L of 2,4-D, but not containing any selective agents. The resting medium was added with 250 mg/L of carbenicillin and 100 mg/L of cefotaxime for Agrobacterium eradication. The immature embryos were cultured at 25° C. in the dark for 7 days and were each divided into four sections. The divided sections were transplanted in a CIMT resting medium (Tingay et al., 1997: Non-Patent Literature 5) containing 0.2 mg/L of 2,4-D and 5 μM CuSO4, but not containing any selective agent. After the resting culture at 25° C. in the dark for 10 days, each four-divided immature embryo section was further divided into three to six subsections (i.e., one immature embryo was divided into 12 to 24 sections). The divided subsections were placed on a CIMT selection medium (Tingay et al., 1997: Non-Patent Literature 5) containing 0.1 mg/L of 2,4-D, 1.5 μM CuSO4, and 75 mg/L of hygromycin and were cultured at 25° C. in the dark for 10 days. Subsequently, subsections having cell clump supposed to be hygromycin resistance were subcultured in a selection medium having the same composition and were cultured at 25° C. in the dark for 10 days.
One hygromycin resistance callus for each divided section was placed on a transition (regeneration preculture) medium (Harwood et al. (2008: Non-Patent Literature 11)) not containing hygromycin and was cultured at 25° C. in the dark for about 2 weeks.

barley immature embryos [3] = test: Callus formation from cocultured immature embryos; assay type: cell-based; details: 0.25 mg/L (1.13 μM) in 1/10 diluted MS coculture medium, no centrifugation or pressurization
barley immature embryos [4] = test: Hygromycin resistance callus formation after secondary selection; assay type: cell-based, barley (variety: Golden Promise); details: Example 4, 5 μM TIBA in coculture medium
Protocol: The materials, the method of inoculation with Agrobacterium, the thermal treatment conditions, the coculture step, the centrifugation treatment conditions, and the resting step were the same as those in Example 3. The coculture medium contained an antiauxin: 5 μM TIBA. The scutellum was divided into four sections, and the resting step was further continued for 10 days. After the resting step, each divided scutellum section was further divided into 4 subsections (i.e., one immature embryo was divided into 16 sections). The divided subsections were transplanted in a CIMT selection medium (Tingay et al., 1997: Non-Patent Literature 5) containing 50 mg/L of hygromycin B and 1.25 mg/L of CuSO4.5H2O. The selection medium was added with 250 mg/L of carbenicillin for Agrobacterium eradication. Scutellum subsections were sorted by the original immature embryo and placed on the medium. After the culture at 25° C. in the dark for 2 weeks, only compact calli were selected by removing sponge-like calli containing a large amount of moisture. […] After the culture, hygromycin resistance compact calli propagated on the selection medium were counted. Note that even when a plurality of resistance calli were formed from scutellum subsections derived from a single immature embryo, only one of the resistance calli was counted as a hygromycin resistance callus for each immature embryo.

With COc1c(Cl)ccc(Cl)c1C(=O)O [dicamba, 3,6-dichloro-2-methoxybenzoic acid] the “gene introduction efficiency (GUS expression index)” value ([1]; Example 1, FIG. 1, 11.3 μM in 1/10 diluted MS coculture medium, coculture 24 hours) was “lowest”, the “transformation efficiency per immature embryo” value (barley immature embryos [2]; test group 1: conventional coculture medium with dicamba, undiluted MS, coculture 3 days, without centrifugation treatment) was 30% and the “transformation efficiency per immature embryo” value (barley immature embryos [2]; test group 2: conventional coculture medium with dicamba, undiluted MS, centrifugation treatment before inoculation) was “no transformant was obtained at all”. For the same compound, the “transformation efficiency per immature embryo” value (barley immature embryos [2]; test group 3: conventional coculture medium with dicamba, undiluted MS, centrifugation treatment after coculture) was 20%.
With O=C(O)COc1ccc(Cl)cc1Cl [2,4-D, 2,4-dichlorophenoxyacetic acid] the “gene introduction efficiency relative to hormone-free coculture medium” value ([1]; Example 5, FIG. 3, 1.13 μM in 1/10 diluted MS coculture medium) was “about one-sixth that of the hormone-free coculture medium”, the “gene introduction efficiency (GUS expression index)” value ([1]; Example 5, FIG. 3, 11.3 μM in 1/10 diluted MS coculture medium) was “lowest” and the “callus formation from cocultured immature embryos” value (barley immature embryos [3]) was “almost no callus was formed”.
With O=C(O)c1cc(I)cc(I)c1I [TIBA, 2,3,5-triiodobenzoic acid] the “gene introduction efficiency (GUS expression index)” value ([1]; Example 1, FIG. 1, 5 μM in 1/10 diluted MS coculture medium, coculture 24 hours, versus plant growth regulator-free group) was “notably enhanced”, the “frequency of hygromycin resistance callus formation from immature embryos” value (barley immature embryos [4]; with centrifugation treatment after coculture, after secondary selection) was 80% and the “frequency of hygromycin resistance callus formation from immature embryos” value (barley immature embryos [4]; without centrifugation treatment) was “no callus survived in the selection medium”. For the same compound, the “transformation efficiency per immature embryo” value (barley immature embryos [2]; test group 4: 5 μM TIBA, 1/10 diluted MS coculture medium, 24 hours, no centrifugation treatment) was “no transformant was obtained at all”, the “transformation efficiency per immature embryo” value (barley immature embryos [2]; test group 5: 5 μM TIBA, 1/10 diluted MS coculture medium, centrifugation treatment before inoculation with Agrobacterium) was 90% and the “transformation efficiency per immature embryo” value (barley immature embryos [2]; test group 6: 5 μM TIBA, 1/10 diluted MS coculture medium, centrifugation treatment after coculture) was 100%.
